From ChEMBL document CHEMBL1201862, “PubChem BioAssay data set” (2004)
Active and inactive are the calls of the source.

Legend:
Paired box protein Pax-8 = Paired box protein Pax-8 (Homo sapiens, UniProt Q06710); assay: PAX8 transcriptional activity inhibition in RMG-I – RMG-I cells, luciferase, cherry-pick, dose response (AID 687027); format: functional, cell-based;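 further: luciferase reporter driven by Pax8 target thyroperoxidase promoter measured by SteadyGlo luminescence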
[1] = target: FAD-linked sulfhydryl oxidase ALR (Homo sapiens, UniProt P55789); assay: ALR-catalysed DTT oxidation blockers – biochemical, H2O2 detection, luminescence, cherry-pick, dose response (AID 493248)
Protein skinhead-1 = target: T1, Protein skinhead-1 (Caenorhabditis elegans, UniProt P34707); format: functional
T1 sequence (P34707 whole entry): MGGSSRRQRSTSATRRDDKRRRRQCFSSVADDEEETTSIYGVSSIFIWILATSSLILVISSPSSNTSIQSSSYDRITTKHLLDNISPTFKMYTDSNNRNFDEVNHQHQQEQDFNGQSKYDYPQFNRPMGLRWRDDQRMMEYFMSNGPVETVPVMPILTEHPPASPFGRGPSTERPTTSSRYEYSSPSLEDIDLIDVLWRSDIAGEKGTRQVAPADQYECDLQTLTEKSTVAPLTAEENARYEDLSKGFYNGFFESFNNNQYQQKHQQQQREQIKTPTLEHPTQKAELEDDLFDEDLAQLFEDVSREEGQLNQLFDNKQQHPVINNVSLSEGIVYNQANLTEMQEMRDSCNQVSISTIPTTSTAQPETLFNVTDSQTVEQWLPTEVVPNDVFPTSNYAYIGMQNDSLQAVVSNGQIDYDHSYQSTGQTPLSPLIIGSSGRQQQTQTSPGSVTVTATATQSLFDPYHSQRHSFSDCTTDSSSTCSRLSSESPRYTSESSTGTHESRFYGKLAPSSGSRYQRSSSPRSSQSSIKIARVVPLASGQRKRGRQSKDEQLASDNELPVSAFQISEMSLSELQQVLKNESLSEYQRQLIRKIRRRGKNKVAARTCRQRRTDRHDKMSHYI

H4 = assay: Luminescence Cell-Based Dose Response HTS to Identify Activators of 5'UTR Stem-Loop Driven Prion Protein mRNA Translation in H4 Neuroglioblastoma Cells. [Related pubchem assays: 1829 (Project Summary), 1814 (Primary HTS)]; format: functional; settings: Homo sapiens
[2] = Luminescence Cell-Based Dose Response HTS to Identify Activators of Luciferase Translation or Activity in H4 […] Cells. [Related pubchem assays: 1829 (Project Summary), 1814 (Primary HTS)]; format: functional
[3] = Luminescence Cell-Based Dose Confirmation HTS to Identify Activators of 5'UTR Stem-Loop Driven Alpha-Synuclein mRNA Translation in H4 Neuroglioblastoma Cells. [Related pubchem assays: 1829 (Project Summary), 1814 (Primary HTS)]; format: functional
[4] = viability of HCT116 lacking mutant beta-catenin – cell-based, human colon tumor, dose response (AID 1045); format: functional;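 further: HCT116 colon tumor cells with beta catenin knocked out; cells exposed to compound for 60 hours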
[5] = viability of PTEN-deleted HCT116 cells – cell-based, HCT116 PTEN knockout, dose response (AID 1047); format: functional;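 further: HCT116 colon tumor cells with PTEN knocked out; cells exposed to compound for 60 hours before readout; potency for loss of cell viability measured by luminescence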
[6] = target: T2, Corticotropin-releasing factor receptor 2/Corticotropin-releasing factor-binding protein (Homo sapiens, UniProt P24387+Q13324); assay: activators of CRF receptor 2 with binding protein – uHTS hits, confirmation (AID 602473); format: functional; settings: read-out: EC50_Mean
T2 sequence (Q13324 whole entry): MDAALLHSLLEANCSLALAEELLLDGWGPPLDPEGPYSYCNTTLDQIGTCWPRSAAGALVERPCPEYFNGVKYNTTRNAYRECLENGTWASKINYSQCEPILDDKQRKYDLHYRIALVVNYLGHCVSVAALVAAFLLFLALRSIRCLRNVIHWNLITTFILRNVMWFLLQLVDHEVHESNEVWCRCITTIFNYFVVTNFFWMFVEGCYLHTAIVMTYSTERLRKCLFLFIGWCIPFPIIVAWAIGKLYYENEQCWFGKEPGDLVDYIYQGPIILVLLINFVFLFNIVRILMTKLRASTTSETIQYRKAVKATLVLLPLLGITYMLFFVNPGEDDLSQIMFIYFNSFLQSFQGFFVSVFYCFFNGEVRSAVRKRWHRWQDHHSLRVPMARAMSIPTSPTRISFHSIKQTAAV
T2 sequence (P24387 whole entry): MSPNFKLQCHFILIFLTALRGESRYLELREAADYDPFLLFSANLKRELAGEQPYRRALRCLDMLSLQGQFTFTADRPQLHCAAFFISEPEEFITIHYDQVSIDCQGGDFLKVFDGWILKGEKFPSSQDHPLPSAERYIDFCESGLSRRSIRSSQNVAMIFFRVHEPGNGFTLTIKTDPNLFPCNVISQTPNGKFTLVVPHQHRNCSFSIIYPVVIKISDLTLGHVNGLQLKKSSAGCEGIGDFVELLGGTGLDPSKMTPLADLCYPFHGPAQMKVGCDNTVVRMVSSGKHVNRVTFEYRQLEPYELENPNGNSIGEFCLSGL

[7] = Trypanosoma cruzi growth suppression in host cells – NIH3T3 host cells, beta-gal luminescence, confirmation (AID 2044); format: functional, cell-based;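 further: intracellular parasites grown in NIH/3T3 mouse fibroblasts as host cells; luminescent beta-galactosidase reporter signal from transgenic T. cruzi replicating inside host cells; inhibitors lower the luminescence signal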
[8] = NIH3T3 cell viability loss – ATP luminescence, mouse fibroblasts, counter-screen, dose response (AID 2010); format: functional, cell-based;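 further: cells exposed to compound for about 90 hours before reading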

FAD-linked sulfhydryl oxidase ALR, sequence (P55789 whole entry): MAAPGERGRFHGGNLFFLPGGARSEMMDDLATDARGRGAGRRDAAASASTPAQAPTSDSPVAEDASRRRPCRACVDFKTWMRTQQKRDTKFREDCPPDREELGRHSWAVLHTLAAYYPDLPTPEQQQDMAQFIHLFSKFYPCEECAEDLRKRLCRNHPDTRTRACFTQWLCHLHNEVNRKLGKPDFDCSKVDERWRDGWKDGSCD
Paired box protein Pax-8, sequence (Q06710 whole entry): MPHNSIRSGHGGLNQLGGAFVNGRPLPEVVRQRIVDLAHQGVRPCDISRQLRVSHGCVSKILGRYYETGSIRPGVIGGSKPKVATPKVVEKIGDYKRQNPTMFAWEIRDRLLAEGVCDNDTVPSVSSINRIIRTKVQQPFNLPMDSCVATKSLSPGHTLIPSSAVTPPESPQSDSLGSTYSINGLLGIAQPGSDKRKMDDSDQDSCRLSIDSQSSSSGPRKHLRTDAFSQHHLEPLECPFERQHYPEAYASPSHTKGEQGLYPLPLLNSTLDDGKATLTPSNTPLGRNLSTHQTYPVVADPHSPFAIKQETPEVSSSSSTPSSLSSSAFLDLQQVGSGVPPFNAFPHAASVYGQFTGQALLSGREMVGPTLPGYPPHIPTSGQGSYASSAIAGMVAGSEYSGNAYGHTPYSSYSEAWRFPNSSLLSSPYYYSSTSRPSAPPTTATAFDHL

COc1cc(/C=N/NC(=O)c2ccc(CN3C(=O)c4cccc5cccc3c45)cc2)cc(OC)c1O
AC50 (Paired box protein Pax-8): 0.286 µM (active)

Nc1ccc(CCc2ccc(N)cc2)cc1
AC50 [1]: 1.91 µM (active)

O=[N+]([O-])c1ccc(COc2cccc3cccnc23)cc1
IC50 (Protein skinhead-1): > 100 µM (inactive)

Cc1nc2ccccc2[nH]c(=O)c1=NNc1ccccc1
EC50 (H4): 19 µM (active) | EC50 [2]: > 120 µM (not active) | EC50 [3]: 24.1 µM (active)

Cc1cc(/C=C2\SC(N)=NC2=O)c(C)n1-c1ccccc1
EC50 (H4): > 120 µM (not active) | EC50 [2]: 0.143 µM (active) | EC50 [3]: 0.167 µM (active)

O=c1c2cc(-c3ccccc3)sc2ncn1/N=C/c1ccco1
EC50 (H4): 56.4 µM (active) | IC50 (Protein skinhead-1): 22.1 µM (active) | EC50 [2]: 14.8 µM (active)

O=S(=O)(c1ccc(F)cc1)N1C[C@H]2[C@@H](c3ccccc31)[C@H](CO)N2Cc1ccccc1Cl
AC50 (Paired box protein Pax-8): 11 µM (active)

CCOC(=O)c1ccc(Nc2nnc(C)c3ccccc23)cc1
EC50 (H4): 16.9 µM (active) | EC50 [2]: 18.6 µM (active) | EC50 [3]: 14.4 µM (active)

C[C@H](O)[C@@H]1CN2CCc3c([nH]c4ccc(-c5ccc6c(c5)OCO6)cc34)[C@@H]2C[C@@H]1N(C)C(=O)NC1CCCCC1
AC50 (Paired box protein Pax-8): 5.9 µM (active)

O=C(/C=C/c1ccc(-c2ccccc2[N+](=O)[O-])o1)c1ccccc1
EC50 [4]: 22.3 µM (active) | EC50 [5]: 22.5 µM (active)

CN(C)c1ccc(/C=C(/C#N)C(=O)Nc2nc3c(s2)CCN(Cc2ccccc2)C3)cc1
EC50 [6]: 2.1 µM (active) | IC50 (Protein skinhead-1): > 100 µM (inactive)

Brc1ccc2nc(-c3cccs3)c(NCC3CCCO3)n2c1 (stereo unspecified)
EC50 (H4): 17.5 µM (active) | EC50 [2]: 9.6 µM (active) | EC50 [3]: 18.9 µM (active)

C[C@H]1CCCCO[C@H](CN(C)C(=O)Nc2ccc(C(F)(F)F)cc2)[C@@H](C)CN([C@@H](C)CO)C(=O)c2cc(NS(=O)(=O)c3cccs3)ccc2O1
AC50 (Paired box protein Pax-8): 7.75 µM (active)

C=CCN(c1ccc(C(=O)NC(C)C)cc1)S(C)(=O)=O
IC50 (Protein skinhead-1): > 100 µM (inactive)

OC(CCCN1CCC(O)(c2ccc(Cl)cc2)CC1)c1ccc(F)cc1 (stereo unspecified) [HYDROXYHALOPERIDOL]
EC50 [4]: 28.4 µM (active) | EC50 [5]: 29.3 µM (active)

COC(=O)[C@]12CCCCC=C1N(Cc1ccc(Cl)cc1Cl)C(=O)[C@H](CC(=O)N1CCN(C(=O)c3ccco3)CC1)C2
AC50 (Paired box protein Pax-8): 1.33 µM (active)

N#C/C(=C\c1cccnc1)c1ccc(Br)cc1
IC50 (Protein skinhead-1): > 100 µM (inactive)

CCN(CC)c1ccc(NC(=O)C2CCCN(S(=O)(=O)c3cccnc3)C2)c(C)c1 (stereo unspecified)
AC50 [1]: 2.3 µM (active)

CCN(CC)c1ccc(NC(=O)c2nc3nc(C)cc(C(F)F)n3n2)cc1
AC50 [1]: 1.51 µM (active)

O=C(NCC(c1cccnc1)N1CCN(c2ccccc2)CC1)c1ccco1 (stereo unspecified)
AC50 [1]: 3.08 µM (active) | EC50 [7]: 0.998 µM (active) | EC50 [8]: > 60 µM (not active)

O=C(O)c1cc(O)ccc1NC(=O)c1cccc2ccccc12
AC50 [1]: 3.41 µM (active)
